Experimental data as given in patent US9394561B2, “Cyclic peptide production” (National Research Council of Canada, priority 2011, dated 2016).
Entries after “also recorded” stand apart in the source; their conditions may differ. Square brackets hold non-standard residues; d marks the D form. Ends that are not written are not given here.

Test system: S. vaccaria PCY1
Assay: In vitro assay of recombinant S. vaccaria PCY1 with wild type and mutant presegetalin substrates, products detected by LC/MS
Format: biochemical, Saponaria vaccaria
Parameters: key to CP (cyclic peptide product detected by LC/MS after in vitro assay) / LP (linear peptide product detected by LC/MS after in vitro assay): +=presence; −=absence
Details: for CP (cyclic peptide product detected by LC/MS after in vitro assay) / LP (linear peptide product detected by LC/MS after in vitro assay): substrates tested for cyclization by S. vaccaria PCY1; for cyclic peptide production by S. vaccaria PCY1 (in words) / linear peptide production by S. vaccaria PCY1 (in words): LC/MS and MS/MS
Method: The gene corresponding to S. vaccaria PCY1 was cloned and expressed in E. coli with a His-tag. HisPur Cobalt Resin™ (Thermo Scientific) was used for purification of recombinant PCY1. The purified PCY1 was quantified using BCA method (Pierce; http://http://www.piercenet.com/) with BSA as a calibration standard. The in vitro assay contained 20 mM Tris buffer (pH 8.5), 100 mM NaCl, 5 mM DTT, 0.2 mg BSA, and 1.5 μg of substrates (wild type and mutant presegetalins, procured from Bio Basic Inc with >90% purity) and was initiated by the addition of 0.3 μg of PCY1, in a total reaction volume of 100 μl. The assay was incubated at 30° C. for up to 1 h and stopped by placing reactions in dry ice. The assays were lyophilized, re-suspended in methanol, evaporated and re-suspended in 50:50 v/v methanol/water for LC/MS analysis.
Ion trap ESI+ LC/MS/MS analysis was used to detect production of cyclic peptides using an Agilent 6320 Ion Trap LC/MS system under default Smart Parameter settings. The analyzer and ion optics were adjusted to achieve proper resolution (Agilent Installation Guide #G2440-90105) using the ESI Tuning Mix (Agilent #G2431A). The mass spectrometer scanned from 50 to 2200 mass units at 8100 mass units sec^−1 with an expected peak width of 0.35 atomic mass units. For auto MS/MS, the trap isolation width was 4 atomic mass units. The associated Agilent 1200 LC was fitted with a Zorbax 300 EXTEND-C18 column (150×2.1 mm, 3.5 μm particle size) maintained at 35° C. The binary solvent system consisted of 90:10 v/v water/acetonitrile containing 0.1% formic acid and 0.1% ammonium formate (solvent A) and 10:90 v/v water/acetonitrile containing 0.1% formic acid and 0.1% ammonium formate (solvent B). The separation gradient was 90:10 A/B to 50:50 A/B in 3 ml over 20 min.
In order to characterize substrate specificity of PCY1 and understand the segetalin A biosynthetic mechanism, a total of 44 substrates (Table 3) were tested for the PCY1 activity and the results are briefly summarized in Table 3. The last two columns in Table 3 summarize product type detected by LC/MS after in vitro assays (CP is cyclic peptide and LP is linear peptide, +=presence, −=absence, NA=not applicable). The 44 substrates were classified as follows: • (A) Presegetalin A1 [14,32], a wild type (WT) precursor of segetalin A • (B) Truncated mutants of presegetalin A1[14,32] • (C) Alanine scanning mutants corresponding to variants of the mature segetalin A sequence • (D) Alanine scanning mutants of the C-terminal region of presegetalin A1[14,32] • (E) D-amino acid mutants corresponding to variants of the mature segetalin A sequence • (F) Insertion mutants corresponding to variants of the mature segetalin A sequence • (G) Other A-class and F-class presegetalins • (H) Putative cyclic peptide precursors from Dianthus caryophyllus

Chain of S. vaccaria PCY1 (as listed by the source): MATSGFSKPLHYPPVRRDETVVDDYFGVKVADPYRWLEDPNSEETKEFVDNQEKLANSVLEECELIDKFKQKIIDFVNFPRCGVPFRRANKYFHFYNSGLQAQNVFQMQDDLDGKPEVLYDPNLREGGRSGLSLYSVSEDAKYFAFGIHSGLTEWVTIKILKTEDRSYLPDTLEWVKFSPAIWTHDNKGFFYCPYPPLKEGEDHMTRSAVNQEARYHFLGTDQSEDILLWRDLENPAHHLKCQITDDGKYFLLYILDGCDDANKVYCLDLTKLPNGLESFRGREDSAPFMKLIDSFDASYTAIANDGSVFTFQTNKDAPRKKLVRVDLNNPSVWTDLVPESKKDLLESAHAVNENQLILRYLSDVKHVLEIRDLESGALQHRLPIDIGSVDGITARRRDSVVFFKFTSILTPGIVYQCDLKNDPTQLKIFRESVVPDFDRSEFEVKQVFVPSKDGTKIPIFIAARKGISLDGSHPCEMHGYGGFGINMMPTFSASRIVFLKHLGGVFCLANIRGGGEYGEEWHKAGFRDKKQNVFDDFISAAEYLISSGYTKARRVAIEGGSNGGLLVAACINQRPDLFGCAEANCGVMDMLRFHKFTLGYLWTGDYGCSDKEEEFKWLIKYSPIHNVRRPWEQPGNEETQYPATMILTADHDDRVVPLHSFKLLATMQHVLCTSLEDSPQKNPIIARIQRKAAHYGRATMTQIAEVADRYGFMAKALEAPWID

| Substance | CP (cyclic peptide product detected by LC/MS after in vitro assay) | LP (linear peptide product detected by LC/MS after in vitro assay) | cyclic peptide production by S. vaccaria PCY1 (in words) | linear peptide production by S. vaccaria PCY1 (in words) | increase in segetalin A production relative to wild type presegetalin A1[14,32] (alanine scanning mutants of C-terminal region) [%] | PCY1 activity (total amount of segetalin A produced) (WT precursor, optimized assay condition) |
| --- | --- | --- | --- | --- | --- | --- |
| 10 (GVPAWAFQAKDVENASAPV; Presegetalin A1[14,32] variant aa17 = alanine) [compound 10] | + | + |  |  |  |  |
| 42 (FGTHGLPAPIQVPNGMDDACAPM; Presegetalin J1[14,36]) [compound 42] | + | − | cyclic peptide products were detected from all of them |  |  |  |
| 34 (GVPAAAVWAFQAKDVENASAPV; Presegetalin A1[14,32] ins 16AAA17) [compound 34] | + | + | produced the expected 9 amino acid cyclic peptide | linear peptide products |  |  |
| 9 (GVAVWAFQAKDVENASAPV; Presegetalin A1[14,32] variant aa16 = alanine) [compound 9] | + | + |  |  |  |  |
| 13 (GVPVWAAQAKDVENASAPV; Presegetalin A1[14,32] F20A) [compound 13] | + | + | sensitive |  |  |  |
| 19 (GVPVWAFQAKDVANASAPV; Presegetalin A1[14,32] E26A) [compound 19] | + | + | relatively higher amounts of segetalin A than that produced from WT substrate |  |  |  |
| 33 (GVPAVWAFQAKDVENASAPV; Presegetalin A1[14,32] ins 16A17) [compound 33] | + | + | both detected | both detected |  |  |
| 5 (GVPVWAF; Presegetalin A1[14,20]) [compound 5] | − | − |  |  |  |  |
| 35 (GVAWAFQAKDVENASAPV; Presegetalin B1[14,31]) [compound 35] | + | − | cyclic peptide products were detected from all of them |  |  |  |
| 17 (GVPVWAFQAKAVENASAPV; Presegetalin A1[14,32] D24A) [compound 17] | + | + | sensitive |  |  |  |
| 15 (GVPVWAFQVKDVENASAPV; Presegetalin A1[14,32] A22V) [compound 15] | + | + |  |  |  |  |
| 8 (GAPVWAFQAKDVENASAPV; Presegetalin A1[14,32] variant aa15 = alanine) [compound 8] | + | + |  |  |  |  |
| 22 (GVPVWAFQAKDVENAAAPV; Presegetalin A1[14,32] S29A) [compound 22] | + | + | relatively higher amounts of segetalin A than that produced from WT substrate |  | 30 |  |
| 40 (GLPGWPFQAKDVENASAPV; Presegetalin L1[14,32]) [compound 40] | + | − | cyclic peptide products were detected from all of them |  |  |  |
| 27 (GV[dP]VWAFQAKDVENASAPV) [compound 27] | + | − |  |  |  |  |
| 29 (GVPV[dW]AFQAKDVENASAPV) [compound 29] | + | + |  |  |  |  |
| 18 (GVPVWAFQAKDAENASAPV; Presegetalin A1[14,32] V25A) [compound 18] | + | + | relatively higher amounts of segetalin A than that produced from WT substrate |  |  |  |
| 2 (GVPVWAFQAKDVENAPV; Presegetalin A1[14,30]) [compound 2] |  | + |  | almost equivalent to the linear peptide formed from the WT substrate |  |  |
| 25 (GVPVWAFQAKDVENASAPA; Presegetalin A1[14,32] V32A) [compound 25] | + | + |  |  |  |  |
| 6 (GVPVWA; Presegetalin A1[14,19]) [compound 6] | − |  |  |  |  |  |
| 3 (GVPVWAFQAKDVENA; Presegetalin A1[14,28]) [compound 3] | − | + |  | almost equivalent to the linear peptide formed from the WT substrate |  |  |
| 30 (GVPVW[dA]FQAKDVENASAPV) [compound 30] | − | − | neither cyclic peptide nor linear peptide were detected | neither cyclic peptide nor linear peptide were detected |  |  |
| 43 (GPIPFYGFQAKDAENASVPV; - Dianthus Precursor A[14,33]) [compound 43] | + | − | small amount of cyclic peptide production |  |  |  |
| 1 (GVPVWAFQAKDVENASAPV; listed as Saponaria vaccaria) [compound 1] | + | + | segetalin A and the linear form (linear peptide) of segetalin A were produced; also recorded: cyclic peptide products were detected from all of them |  |  | 3 nmol/mg of protein/min |
| 21 (GVPVWAFQAKDVENVSAPV; Presegetalin A1[14,32] A28V) [compound 21] | + | + | sensitive |  |  |  |
| 12 (GVPVWVFQAKDVENASAPV; Presegetalin A1[14,32] variant aa19 = valine) [compound 12] | − | − | neither cyclic peptide nor linear peptide was detected | neither cyclic peptide nor linear peptide was detected |  |  |
| 16 (GVPVWAFQAADVENASAPV; Presegetalin A1[14,32] K23A) [compound 16] | + | + | sensitive |  |  |  |
| 37 (GLSFAFQAKDAENASSPV; Presegetalin D1[14,31] P20Q) [compound 37] | + | − | resulted in a 5 amino acid cyclic peptide product |  |  |  |
| 20 (GVPVWAFQAKDVEAASAPV; Presegetalin A1[14,32] N27A) [compound 20] | + | + | sensitive |  |  |  |
| 4 (GVPVWAFQAKD; Presegetalin A1[14,24]) [compound 4] | − | + |  | almost equivalent to the linear peptide formed from the WT substrate |  |  |
